Measured values from patent US8192962B2, “Processes for detecting toxic substances” (Daikin Industries, Ltd., priority 2001, dated 2012).

Tested on: Transport facilitation protein genes
Assay: DNA chip mRNA expression in yeast, transport facilitation protein genes (Table 5)
Type: cell-based, Saccharomyces cerevisiae S288C
Procedure: Yeast (Saccharomyces cerevisiae S288C (α SUC2mal mel gap2 CUP1)) were incubated at 25° C. on YPD medium (yeast extract 1%, polypepton 2%, glucose 2%). One of toxic chemical substances was added to the cells at logarithmic growth phase, and the cells were further incubated for two hours. Cells were cultured without any chemical substance in the same condition, and were used as control. Concentrations of the chemical substances were defined to inhibit the growth of the yeast but not lead to death.
After completion of the incubation, the culture was centrifuged to collect the cells. To the cells, sodium acetate buffer (50 mM sodium acetate, 10 mM EDTA, 1% SDS) was added, and the mixture was shaken at 65° C. for five minutes, followed by returning to room temperature, and obtaining the supernatant, of which the procedures were repeated two times. To the supernatant, ½ amount of a solution of phenol/chloroform was added, and the mixture was centrifuged to give a supernatant, which was added with an equal amount of chloroform, and the mixture was centrifuged to give a supernatant. To the supernatant, an equal amount of isopropanol containing 0.3 M sodium acetate was added, and the mixture was allowed to stand at room temperature for 30 minutes, after which the mixture was centrifuged to give a sediment of the whole RNAs. Seventy % ethanol was added to the sediment, and the mixture was again centrifuged to give a sediment, which was then dried and dissolved in water. mRNA was isolated from the whole RNAs as followings. In view of the fact that a poly A chain is attached to the 3′ terminus of mRNA, a polynucleotide having a poly T structure which was immobilized on the surface of latex beads was used to trap the mRNA, and then the mRNA was washed and eluted with spine column (Oligotex-dT30<Super>mRNA Purification Kit, Takara). Reverse transcription of the mRNA was conducted with a reverse transcriptase (Super Script II Reverse Transcriptase; catalogue No. 18064-014, GibcoBRL) using fluorescence-labeled nucleotides to give cDNAs that were introduced with Cy3-dUTP or Cy5-dUTP during the reverse transcription.
The labeled cDNAs were dissolved in TE buffer (10mM Tris-HCl/1 mM EDTA, pH8.0), and the solution was dropped on the DNA chip containing the whole genes of yeast (DNA Chip Research Inc. Japan) so that the cDNAs were hybridized on the DNA chip at 65° C. for over 12 hours. The fluoresces intensity of the DNA chip was read with a scanner, and the ratio relative to the fluorescence intensity resulting from the absence of chemical substance was estimated as the following, which is shown in Tables 1 to 9: […]

[Cl][Hg][Cl] [(3), HgCl2]
The level of expressed mRNA in the presence of chemical substance/The level of expressed mRNA in the absence of chemical substance (yeast gene YGR224W): 1.2 | The level of expressed mRNA in the presence of chemical substance/The level of expressed mRNA in the absence of chemical substance (yeast gene YGR260W): 3.4 | The level of expressed mRNA in the presence of chemical substance/The level of expressed mRNA in the absence of chemical substance (yeast gene YGR281W): 1.3 | The level of expressed mRNA in the presence of chemical substance/The level of expressed mRNA in the absence of chemical substance (yeast gene YHL035C): 0.9 | The level of expressed mRNA in the presence of chemical substance/The level of expressed mRNA in the absence of chemical substance (yeast gene YHL040C): 1.5 | The level of expressed mRNA in the presence of chemical substance/The level of expressed mRNA in the absence of chemical substance (yeast gene YHL047C): 1.0 | The level of expressed mRNA in the presence of chemical substance/The level of expressed mRNA in the absence of chemical substance (yeast gene YHR026W): 1.9 | The level of expressed mRNA in the presence of chemical substance/The level of expressed mRNA in the absence of chemical substance (yeast gene YHR092C): 7.5 | The level of expressed mRNA in the presence of chemical substance/The level of expressed mRNA in the absence of chemical substance (yeast gene YHR094C): 5.3 | The level of expressed mRNA in the presence of chemical substance/The level of expressed mRNA in the absence of chemical substance (yeast gene YHR175W): 2.4 | The level of expressed mRNA in the presence of chemical substance/The level of expressed mRNA in the absence of chemical substance (yeast gene YIL006W): 1.4 | The level of expressed mRNA in the presence of chemical substance/The level of expressed mRNA in the absence of chemical substance (yeast gene YIL022W): 1.1 | The level of expressed mRNA in the presence of chemical substance/The level of expressed mRNA in the absence of chemical substance (yeast gene YIL056W): 6.2 | The level of expressed mRNA in the presence of chemical substance/The level of expressed mRNA in the absence of chemical substance (yeast gene YIL088C): 2.1 | The level of expressed mRNA in the presence of chemical substance/The level of expressed mRNA in the absence of chemical substance (yeast gene YJL034W): 3.0 | The level of expressed mRNA in the presence of chemical substance/The level of expressed mRNA in the absence of chemical substance (yeast gene YJL212C): 3.1 | The level of expressed mRNA in the presence of chemical substance/The level of expressed mRNA in the absence of chemical substance (yeast gene YJL219W): 3.1 | The level of expressed mRNA in the presence of chemical substance/The level of expressed mRNA in the absence of chemical substance (yeast gene YJR077C): 2.0 | The level of expressed mRNA in the presence of chemical substance/The level of expressed mRNA in the absence of chemical substance (yeast gene YJR106W): 1.5 | The level of expressed mRNA in the presence of chemical substance/The level of expressed mRNA in the absence of chemical substance (yeast gene YJR121W): 3.3 | The level of expressed mRNA in the presence of chemical substance/The level of expressed mRNA in the absence of chemical substance (yeast gene YKL016C): 0.7 | The level of expressed mRNA in the presence of chemical substance/The level of expressed mRNA in the absence of chemical substance (yeast gene YKL146W): 1.3 | The level of expressed mRNA in the presence of chemical substance/The level of expressed mRNA in the absence of chemical substance (yeast gene YKR039W): 1.3 | The level of expressed mRNA in the presence of chemical substance/The level of expressed mRNA in the absence of chemical substance (yeast gene YKR067W): 1.5 | The level of expressed mRNA in the presence of chemical substance/The level of expressed mRNA in the absence of chemical substance (yeast gene YLL028W): 4.6 | The level of expressed mRNA in the presence of chemical substance/The level of expressed mRNA in the absence of chemical substance (yeast gene YLR081W): 2.8 | The level of expressed mRNA in the presence of chemical substance/The level of expressed mRNA in the absence of chemical substance (yeast gene YLR295C): 1.1 | The level of expressed mRNA in the presence of chemical substance/The level of expressed mRNA in the absence of chemical substance (yeast gene YLR348C): 1.2 | The level of expressed mRNA in the presence of chemical substance/The level of expressed mRNA in the absence of chemical substance (yeast gene YLR378C): 2.6 | The level of expressed mRNA in the presence of chemical substance/The level of expressed mRNA in the absence of chemical substance (yeast gene YMR011W): 9.4 | The level of expressed mRNA in the presence of chemical substance/The level of expressed mRNA in the absence of chemical substance (yeast gene YMR162C): 1.1 | The level of expressed mRNA in the presence of chemical substance/The level of expressed mRNA in the absence of chemical substance (yeast gene YMR203W): 3.0 | The level of expressed mRNA in the presence of chemical substance/The level of expressed mRNA in the absence of chemical substance (yeast gene YNL055C): 5.5 | The level of expressed mRNA in the presence of chemical substance/The level of expressed mRNA in the absence of chemical substance (yeast gene YNL259C): 1.1 | The level of expressed mRNA in the presence of chemical substance/The level of expressed mRNA in the absence of chemical substance (yeast gene YNR072W): 0.5 | The level of expressed mRNA in the presence of chemical substance/The level of expressed mRNA in the absence of chemical substance (yeast gene YOL119C): 1.5 | The level of expressed mRNA in the presence of chemical substance/The level of expressed mRNA in the absence of chemical substance (yeast gene YOL156W): 2.5 | The level of expressed mRNA in the presence of chemical substance/The level of expressed mRNA in the absence of chemical substance (yeast gene YOL163W): 2.1 | The level of expressed mRNA in the presence of chemical substance/The level of expressed mRNA in the absence of chemical substance (yeast gene YOR035C): 0.3 | The level of expressed mRNA in the presence of chemical substance/The level of expressed mRNA in the absence of chemical substance (yeast gene YOR130C): 1.4 | The level of expressed mRNA in the presence of chemical substance/The level of expressed mRNA in the absence of chemical substance (yeast gene YOR153W): 5.1 | The level of expressed mRNA in the presence of chemical substance/The level of expressed mRNA in the absence of chemical substance (yeast gene YOR273C): 1.7 | The level of expressed mRNA in the presence of chemical substance/The level of expressed mRNA in the absence of chemical substance (yeast gene YOR316C): 1.5 | The level of expressed mRNA in the presence of chemical substance/The level of expressed mRNA in the absence of chemical substance (yeast gene YOR332W): 1.0 | The level of expressed mRNA in the presence of chemical substance/The level of expressed mRNA in the absence of chemical substance (yeast gene YOR348C): 1.2 | The level of expressed mRNA in the presence of chemical substance/The level of expressed mRNA in the absence of chemical substance (yeast gene YPL036W): 2.8 | The level of expressed mRNA in the presence of chemical substance/The level of expressed mRNA in the absence of chemical substance (yeast gene YPL134C): 1.6 | The level of expressed mRNA in the presence of chemical substance/The level of expressed mRNA in the absence of chemical substance (yeast gene YPL271W): 4.1 | The level of expressed mRNA in the presence of chemical substance/The level of expressed mRNA in the absence of chemical substance (yeast gene YPR192W): 0.9 | The level of expressed mRNA in the presence of chemical substance/The level of expressed mRNA in the absence of chemical substance (yeast gene YPR194C): 0.5
